The test system of test [1] is Pol I transcription. As to the kind of experiment: In vitro transcription: TIF-IA mutants restoring rDNA transcription of nuclear extract from density-arrested FM3A cells. The class given is biochemical, murine. The procedure:
(A) Transcriptional activity of TIF-IA mutants in vitro. FLAG-tagged wild-type TIF-IA and the indicated single or double point mutants were overexpressed in HEK293T cells, immunopurified, and 20 and 40 ng were assayed for their capability to restore rDNA transcriptional activity of nuclear extract from density-arrested FM3A cells. The amount and purity of TIF-IA were estimated on silver-stained SDS-polyacrylamide gels and Western blots (data not shown).
(A) Transcriptional activity of TIF-IAS199A and TIF-IAS199D in vitro. FLAG-tagged wild-type TIF-IA and the indicated mutants were immunopurified from HEK293T cells, and 30 and 60 ng were assayed for their capability to restore transcriptional activity of nuclear extract from density-arrested FM3A cells. The amount and purity of TIF-IA were estimated on silver-stained SDS-polyacrylamide gels (data not shown).
(B) Transcriptional activity of TIF-IAS44A in vitro. FLAG-tagged wild-type TIF-IA and the indicated mutant were assayed for their transcriptional activity in vitro.
(§1) Nuclear extracts were prepared from exponentially growing (8×10^5 cells/ml), density-arrested or PD98059-treated (CN Bioscience, Bad Soden, Germany) 40 μM, 0.5 hr) or rapamycin-treated FM3A cells (ATCC, Manassas, USA). 25 μl assays contained 50 ng of template DNA (pMr600/EcoRI), 30 μg nuclear extract proteins and 12 mM Hepes-KOH, [pH8.0], 0.1 mM EDTA, 5 mM MgCl2, 80 mM KCl, 10 mM creatine phosphate, 12% (v/v) glycerol, 0.66 mM each of ATP, GTP and CTP, 0.01 mM UTP and 0.5 μCi [α-^32P]UTP (5000 Ci/mmol). After incubation for 60 min at 30° C., RNA was extracted and analyzed on non-denaturing 5% polyacrylamide gels
TIF-IA was immunopurified from untransfected NIH3T3 cells or from HEK293T cells overexpressing FLAG-tagged TIF-IA. 4×10^6 cells were lysed in 0.8 ml IP buffer (20 mM Tris-HCl [pH 7.4], 200 mM NaCl, 2 mM EDTA, 2 mM EGTA, 1% Triton X-100, 0.5 mM PMSF, 1 μg/ml aprotinin, 5 μg/ml leupeptin and 1 μg/ml pepstatin A), centrifuged at 10,000 g for 30 min, and the supernatants were incubated for 4 hr at 4° C. with either 10 μg anti-TIF-IA antibodies bound to 20 μl protein G-agarose or with anti-FLAG (M2) agarose (Sigma-Aldrich Corp., Missouri, USA). The immunocomplexes were successively washed with buffer AM (20 mM Tris-HCl [pH 8.0], 5 mM MgCl2, 0.1 mM EDTA, 20% glycerol) containing 400 and 100 mM KCl, respectively. The amount and purity of TIF-IA was estimated on silver-stained polyacrylamide gels and similar amounts of bead-bound TIF-IA were used in in vitro transcription assays. GST fusion proteins were expressed in E. coli BL21(DE3) and purified on Glutathione-Sepharose 4B according to the manufacturer's instructions.
To assess the functional relevance of S633 and S649 phosphorylation on transcriptional activity, the respective S→A and S→D single or double point mutants were purified from transfected cells and assayed for their capability to rescue transcription of extracts from density-arrested cells. […] Thus, phosphorylation of TIF-IA at S649 and S633 is required for transcriptional activity.
Phosphorylation of peptide a should inhibit TIF-IA activity, while phosphorylation of peptide b, e.g. S44, should augment TIF-IA activity.

The test system of another test is Pol I. As to the kind of experiment: Co-immunoprecipitation of Pol I with TIF-IA mutants from HEK293T cells. The class given is binding, human. The procedure:
(§2) (B) A mutant that mimics phosphorylation of TIF-IA at S199 fails to interact with Pol I and TIF-IB. FLAG-tagged wild-type TIF-IA or the indicated point mutants were overexpressed in HEK293T cells and immunoprecipitated from cell lysates with anti-FLAG antibodies (M2 agarose). Co-precipitated Pol I and TIF-IB/SL1 were visualized on Western blots with anti-RPA116 and anti-TAFI110 antibodies.
(§3) Immunoprecipitations were carried out from human cells overexpressing FLAG-tagged TIF-IA. Cells were lysed in IP buffer, cleared by centrifugation at 10,000×g for 30 min, and the supernatants were incubated for 4 hr at 4° C. with anti-FLAG (M2) agarose (Sigma). To analyze the interaction of TIF-IA with TIF-IB/SL1, the immunoprecipitates were washed with IP buffer and TIF-IB/SL1 was visualized on immunoblots with α-TAFI110 antibodies. To monitor the interaction of TIF-IA with Pol I, the immunoprecipitates were washed with IP buffer containing 600 mM NaCl and Pol I was analyzed on Western blots using antibodies against the second largest subunit of Pol I (RPA116) or PAF67 (Seither et al., J. Biol. Chem. 382 (2001), 1163-1170).
(§4) Given the importance of mTOR-mediated alterations in the phosphorylation pattern on TIF-IA activity, one could predict that either phosphorylation of S199, dephosphorylation of S44 or both regulate the interaction of TIF-IA with the Pol I transcription apparatus. It was therefore examined whether the S→A or S→D point mutant(s) were capable of interacting with Pol I and/or TIF-IB/SL1. For this, TIF-IA was precipitated from cells overexpressing either FLAG-tagged wild-type TIF-IA or the respective S199 and S44 mutant(s), and co-precipitated Pol I and TIF-IB/SL1 were visualized on Western blots.

In the next test the test system is TIF-IB/SL1. As to the kind of experiment: Co-immunoprecipitation of TIF-IB/SL1 with TIF-IA mutants from HEK293T cells. The class given is binding, human. The procedure:
as §2, §3, §4

Test [2] has as its system Pol I transcription. As to the kind of experiment: In vitro transcription: TIF-IA mutants added to nuclear extract from exponentially growing FM3A cells. The class given is biochemical, murine. The note with it: 20 and 40 ng added to 15 ug nuclear extract. The procedure:
20 and 40 ng of the indicated TIF-IA mutants were added to 15 ug nuclear extract from exponentially growing FM3A cells and rDNA transcription was assayed.
as §1
Given that phosphorylation of TIF-IA at serine 649 is essential for transcription, excess of TIF-IAS649A should impair Pol I transcription. To test this, we examined the effect of exogenous wild-type and mutant TIF-IA on transcriptional activity of extracts from exponentially growing cells.

A further test has as its system HEK293T cells. Put plainly: Quantitative fluorimetric viability assay with calcein-AM. The class given is cell-based. The note with it: 24, 36, 48 and 60 hr after transfection; 2 μM calcein-AM. The procedure:
(B) Quantitative fluorimetric viability assay with calcein-AM. HEK293T cells were transfected with TIF-IA or the indicated point mutants. […] Viable cells were measured 24, 36, 48 and 60 hr after transfection by incubation with […] calcein-AM. The gradual increase in fluorescence intensity was recorded with a fluorescence multi-well plate reader for 20 min with an excitation wavelength of 485 nm and an emission wavelength of 530 nm. The proliferation rate of mock-transfected cells and cells overexpressing TIF-IA is shown at the left. Plots show the accumulation of calcein fluorescence (arbitrary units) against time. Growth rates calculated from linear regression curves are shown at the right. Values are presented as the mean±SD from three independent experiments performed in duplicates.
Conversion of calcein-AM (calcein acetoxymethyl ester, (CN Bioscience GmbH, Bad Soden, Germany) to calcein was used to measure cell proliferation. 12 hr after transfection, HEK293T cells were seeded to 96-well micro-plates at 1×10^4 cells/well. After 24, 36, 48 and 60 hr, cells were washed with PBS, incubated with 2 μM calcein-AM, and the gradual increase in fluorescence intensity within the cells was recorded by a fluorescence multi-well plate reader (CytoFluor Series 4000/TC, PerSeptive Biosystems, (Applied Biosystems, Forster City, USA) for 20 min in 1 min intervals. Excitation wavelength used for measurements of fluorescence was 485 nm with a bandwidth of 20 nm; emission wavelength was 530 nm with a bandwidth of 25 nm. Under the experimental conditions used, there is a direct correlation between the accumulation ratio of intracellular calcein fluorescence and the number of viable cells. The data from three independent experiments were analyzed by Sigmaplot and expressed as the mean±standard deviation. For statistical analysis, student's t test was used. Differences with a P<0.01 were considered statistically significant.
Given the functional significance of ERK/RSK-directed TIF-IA phosphorylation on Pol I transcription, mutations that enhance or abrogate TIF-IA activity may have a positive or negative effect on cell growth. To test this, HEK293T cells were transfected with cDNAs encoding wild-type or mutant TIF-IA which harbor single or double point mutations at S649 and S633. The expression of TIF-IA was estimated on Western blots and the cellular growth rate was measured by calcein-AM staining. Calcein-AM is a non-fluorescent, hydrophobic compound that is rapidly hydrolyzed by intracellular esterases releasing hydrophilic fluorescent calcein. Thus, cellular calcein fluorescence correlates with the amount of viable cells. […] Cells expressing FLAG-tagged wild-type or mutant TIF-IA were stained with FITC-conjugated anti-FLAG antibodies, identified by FACS and cell numbers were calculated by measuring the ratio of stained cells versus an internal standard. […] Conversely, the number of cells expressing TIF-IAS649A was 33% lower than the control. […] Taken together, the results reveal a striking correlation between phosphorylation of TIF-IA at serine 649, cellular rRNA synthetic activity and cell cycle progression.

Where [3] appears, read: S633/S649 mutants, 20 and 40 ng.
[4] abbreviates: S199 and S44 mutants, 30 and 60 ng.

For “S633D: TIF-IA point mutant, serine 633 replaced by aspartic acid”, the “capability to rescue transcription of extracts from density-arrested cells” value (“capability to rescue transcription” for short) in the test with Pol I transcription [1] (setting [3]) is listed as “less active than wild-type TIF-IA”.

With “TIF-IAS199A: the mutant in which S199 was changed to alanine”, the “capability to rescue transcription” value with Pol I transcription [1] (setting [4]) is reported as “activated Pol I transcription like wild-type TIF-IA”. In the test with Pol I, the “interaction with Pol I (co-precipitated RPA116)” value was “interacted with both Pol I and TIF-IB/SL1”. Moreover, in the test with TIF-IB/SL1, the “interaction with TIF-IB/SL1 (co-precipitated TAFI110)” value was “interacted with both Pol I and TIF-IB/SL1”.

Regarding “TIF-IAS199D: TIF-IA mutant, replacement of S199 by aspartic acid”, in the test on Pol I transcription [1] (setting [4]), the “capability to rescue transcription” value is “abolished TIF-IA activity”. In the test on Pol I, the “interaction with Pol I (co-precipitated RPA116)” value is “no association of either Pol I or TIF-IB/SL1 could be detected”. In addition, the “interaction with TIF-IB/SL1 (co-precipitated TAFI110)” value in the test on TIF-IB/SL1 is on record as “no association of either Pol I or TIF-IB/SL1 could be detected”.

As to “TIF-IAS633A: TIF-IA point mutant, serine 633 replaced by alanine”, the “capability to rescue transcription” value in the test on Pol I transcription [1] (setting [3]) is reported as “abolished TIF-IA activity”. Also, the “effect on transcriptional activity of extracts from exponentially growing cells” value in the test with Pol I transcription [2] was “suppressed transcription well below the basal level”.

In the case of “TIF-IAS633AS649A: TIF-IA double mutant, serines 633 and 649 replaced by alanine”, in the test with Pol I transcription [1] (setting [3]), the “capability to rescue transcription” value is “abolished TIF-IA activity”. The “cellular growth rate by calcein-AM staining” value with HEK293T cells is listed as “impaired cell growth”.

For “TIF-IAS633DS649D: TIF-IA double mutant, serines 633 and 649 replaced by aspartic acid”, in the test on Pol I transcription [1] (setting [3]), the “capability to rescue transcription” value was “TIF-IA activity was increased”. Moreover, in the test on HEK293T cells, the “cellular growth rate by calcein-AM staining” value is listed as “accelerated cell growth”.

(Values after patent publication US20060057669A1, “Inactive transcription factor tif-ia and uses thereof” (priority 2002, published 2006).)
